What was measured:
[1] = tested on: dermal papilla (DP) cells; experiment: In vitro cytotoxic MTT assay against DP cells; type: cell-based, human; conditions: 0.5–50 µM, 24 h
Protocol: The cytotoxicity of caffeic acid and its amide derivatives were evaluated with two cell lines, human keratinocyte (HaCaT) and DP cells, using the common cell viability assay with MTT. HaCaT and DP cells were seeded at 1 × 10^4 cell/well in 96-well plates in a complete DMEM medium, incubated overnight, and treated with test compounds at 0–50 µM for 24 h. The stock solutions of all the test compounds were prepared in DMSO. Each compound was serially diluted in DMEM to achieve concentrations at 0.5–50 µM; DMEM was used as the negative control. After 24 h of treatment, the culture medium was removed, and cell viability was determined by adding 100 µL of 0.5 mg/mL MTT at 37 °C in darkness for 3 h. After removing the MTT solution, 100 µL of DMSO was added to each well to dissolve the purple formazan crystals. The absorbance was measured at 570 nm using a microplate reader, and the IC50 value was calculated. Each experiment was performed in triplicates.

[2] = tested on: SRD5A1 protein expression; experiment: Western blot of SRD5A1 protein expression in HaCaT cells; type: cell-based, human
Protocol: HaCaT cells (1 × 10^5 cells/well in 6-well plates) were cultured in DMEM with or without compound 4 (0–2.5 µM) for 12 and 24 h. The cells were lysed with RIPA buffer containing 1% protease inhibitor and 1% phosphatase inhibitor on ice for 45 min. Then, the total protein from each sample was determined by bicinchoninic acid (BCA) protein assay kit (Cat No. 23225, Thermo Fisher Scientific, Rockford, IL, USA). The equal amount (40 µg) of protein sample was mixed with loading buffer and heated at 95 °C for 5 min before loaded to 10% sodium dodecyl sulfate–polyacrylamide gels (SDS-PAGE). The proteins were transferred onto PVDF membrane, which was further blocked with 5% BSA in TBST (25 mmol/L Tris–HCl; pH 7.4, 125 mmol/L NaCl, 0.1% Tween 20) at room temperature for 1 h. The primary antibody specific to SRD5A1 (1TFS-AB-PA575919, Thermo Fisher Scientific, Rockford, IL, USA) in dilution 1:1000 was added onto the membrane and incubated overnight at 4 °C. Then the membrane was washed 3 times × 7 min with TBST following with the immersion in the specific secondary antibody conjugated with horseradish peroxidase (HRP) for 1 h at room temperature. The signal of target protein was determined by using chemiluminescence HRP substrate (Thermo Scientific, Rockford, IL, USA) and the intensity of target protein was analyzed by analyst/PC densitometric software (Bio-Rad, Hercules, CA, USA).

## O=C(C=Cc1ccc(O)c(O)c1)Nc1cc(C(F)(F)F)cc(C(F)(F)F)c1 [Compound 4, 3-(3,4-dihydroxyphenyl)-N-[3,5-bis (trifluoromethyl)phenyl]-2-propenamide]
[1]
  Toxicity against DP cells: no toxicity
[2]; 2.5 µM, 24 h
  Suppression of SRD5A1 protein expression relative to untreated control: > 50%
[2]; 1 and 2.5 µM, 24 h
  SRD5A1 protein expression relative to control: significant decrease
[2]; 12 h
  SRD5A1 protein level relative to control: no significant changes
